Results taken from publication PMC8226722, “Comparison of Solution Chemical Properties and Biological Activity of Ruthenium Complexes of Selected β-Diketone, 8-Hydroxyquinoline and Pyrithione Ligands” (Pharmaceuticals, 2021).

What follows are compounds tested on Colo 205 chemo-sensitive human colonic adenocarcinoma cell line (assay: MTT cytotoxicity assay, Colo 205). Details: 72 h, MTT.
Assay type: cell-based
Method: (§1) Human colonic adenocarcinoma cell lines Colo 205 doxorubicin-sensitive (ATCC-CCL-222) and Colo 320/MDR-LRP multidrug resistant expressing ABCB1 (MDR1)-LRP (ATCC-CCL-220.1) were purchased from LGC Promochem (Teddington, UK). […] Cell lines were incubated at 37 °C, in a 5% CO2, 95% air atmosphere. The semi-adherent human colon cancer cells were detached with Trypsin-Versene (EDTA, Sigma, Steinheim, Germany) solution for 5 min at 37 °C. MRC-5 human embryonal lung fibroblast cell lines (ATCC CCL-171) were purchased from LGC Promochem. […] The cell lines were incubated at 37 °C, in a 5% CO2, 95% air atmosphere.
(§2) In the study MRC-5 non-cancerous human embryonic lung fibroblast and human colonic adenocarcinoma cell lines (doxorubicin-sensitive Colo 205 and multidrug resistant Colo 320 colonic adenocarcinoma cells) were used to determine the effect of compounds on cell growth. The effects of increasing concentrations of compounds on cell growth were tested in 96-well flat-bottomed microtiter plates. The stock solutions of the compounds were prepared in DMSO, and in the final samples the DMSO content was always lower than 1%. The compounds were diluted in a volume of 100 μL of medium.
(§3) In case of the colonic adenocarcinoma cells, the two-fold serial dilutions of compounds were prepared in 100 μL of RPMI 1640, horizontally. The semi-adherent colonic adenocarcinoma cells were treated with Trypsin-Versene (EDTA) solution. They were adjusted to a density of 1 × 10^4 cells in 100 μL of RPMI 1640 medium, and were added to each well, with the exception of the medium control wells. The final volume of the wells containing compounds and cells was 200 μL.
(§4) The culture plates were incubated at 37 °C for 72 h; at the end of the incubation period, 20 μL of MTT (Sigma) solution (from a stock solution of 5 mg/mL) were added to each well. After incubation at 37 °C for 4 h, 100 μL of sodium dodecyl sulfate (SDS) (Sigma) solution (10% in 0.01 M HCl) were added to each well and the plates were further incubated at 37 °C overnight. Cell growth was determined by measuring the optical density (OD) at 540/630 nm with Multiscan EX ELISA reader (Thermo Labsystems, Cheshire, WA, USA). […] Curves were fitted by Prism software (GraphPad Software Inc., San Diego, CA, USA) using the sigmoidal dose-response model (comparing variable and fixed slopes). The IC50 values were obtained from at least 3 independent experiments.

Compound	IC50 [µM]
Cc1ccc(C(C)C)cc1.[Cl-].[O-]n1ccccc1=S.[Ru+2] [complex 1]	14 ± 0.62
C1N2CN3CN1CP(C2)C3.Cc1ccc(C(C)C)cc1.F[P-](F)(F)(F)(F)F.[O-]n1ccccc1=S.[Ru+2] [complex 2]	> 100
Cc1ccc(C(C)C)cc1.[Cl-].[O-]n1ccc2ccccc2c1=S.[Ru+2] [complex 3]	17.3 ± 3.1
C1N2CN3CN1CP(C2)C3.Cc1ccc(C(C)C)cc1.F[P-](F)(F)(F)(F)F.[O-]n1ccc2ccccc2c1=S.[Ru+2] [complex 4]	> 100
Cc1ccc(C(C)C)cc1.O=C(C=C([O-])C(F)(F)F)c1ccc(Cl)cc1.[Cl-].[Ru+2] [complex 7]	52.4 ± 2.7
C1N2CN3CN1CP(C2)C3.Cc1ccc(C(C)C)cc1.F[P-](F)(F)(F)(F)F.O=C(C=C([O-])C(F)(F)F)c1ccc(Cl)cc1.[Ru+2] [complex 8]	80.6 ± 1.1

Same assay, conditions: ratio of the indicated IC50 values

Compound	S.I. MRC-5/Colo 205
Cc1ccc(C(C)C)cc1.[Cl-].[O-]n1ccccc1=S.[Ru+2] [complex 1]	0.15
Cc1ccc(C(C)C)cc1.[Cl-].[O-]n1ccc2ccccc2c1=S.[Ru+2] [complex 3]	0.44
C1N2CN3CN1CP(C2)C3.Cc1ccc(C(C)C)cc1.F[P-](F)(F)(F)(F)F.[O-]n1ccc2ccccc2c1=S.[Ru+2] [complex 4]	<0.81
Cc1ccc(C(C)C)cc1.O=C(C=C([O-])C(F)(F)F)c1ccc(Cl)cc1.[Cl-].[Ru+2] [complex 7]	0.51
C1N2CN3CN1CP(C2)C3.Cc1ccc(C(C)C)cc1.F[P-](F)(F)(F)(F)F.O=C(C=C([O-])C(F)(F)F)c1ccc(Cl)cc1.[Ru+2] [complex 8]	0.22

Each compound was assayed on Colo 320 multidrug resistant human colonic adenocarcinoma cell line (assay: MTT cytotoxicity assay, Colo 320). Details: 72 h, MTT.
Assay type: cell-based
Method: as §1, §2, §3, §4

Compound	IC50 [µM]
Cc1ccc(C(C)C)cc1.[Cl-].[O-]n1ccccc1=S.[Ru+2] [complex 1]	3.3 ± 1.3
C1N2CN3CN1CP(C2)C3.Cc1ccc(C(C)C)cc1.F[P-](F)(F)(F)(F)F.[O-]n1ccccc1=S.[Ru+2] [complex 2]	> 100
Cc1ccc(C(C)C)cc1.[Cl-].[O-]n1ccc2ccccc2c1=S.[Ru+2] [complex 3]	10.7 ± 1.5
C1N2CN3CN1CP(C2)C3.Cc1ccc(C(C)C)cc1.F[P-](F)(F)(F)(F)F.[O-]n1ccc2ccccc2c1=S.[Ru+2] [complex 4]	> 100
Cc1ccc(C(C)C)cc1.O=C(C=C([O-])C(F)(F)F)c1ccc(Cl)cc1.[Cl-].[Ru+2] [complex 7]	29.1 ± 2
C1N2CN3CN1CP(C2)C3.Cc1ccc(C(C)C)cc1.F[P-](F)(F)(F)(F)F.O=C(C=C([O-])C(F)(F)F)c1ccc(Cl)cc1.[Ru+2] [complex 8]	47.8 ± 7.3

Same assay, conditions: ratio of the indicated IC50 values

Compound	S.I. MRC-5/Colo 320
Cc1ccc(C(C)C)cc1.[Cl-].[O-]n1ccccc1=S.[Ru+2] [complex 1]	0.66
Cc1ccc(C(C)C)cc1.[Cl-].[O-]n1ccc2ccccc2c1=S.[Ru+2] [complex 3]	0.71
C1N2CN3CN1CP(C2)C3.Cc1ccc(C(C)C)cc1.F[P-](F)(F)(F)(F)F.[O-]n1ccc2ccccc2c1=S.[Ru+2] [complex 4]	<0.81
Cc1ccc(C(C)C)cc1.O=C(C=C([O-])C(F)(F)F)c1ccc(Cl)cc1.[Cl-].[Ru+2] [complex 7]	0.91
C1N2CN3CN1CP(C2)C3.Cc1ccc(C(C)C)cc1.F[P-](F)(F)(F)(F)F.O=C(C=C([O-])C(F)(F)F)c1ccc(Cl)cc1.[Ru+2] [complex 8]	0.37

What follows are compounds tested on Enterococcus faecalis ATCC 29212 (assay: MIC determination (CLSI broth microdilution)). Details: Gram-positive, ATCC 29212, 18 h.
Assay type: cell-based
Method: (§5) Wild-type Escherichia coli K-12 AG100 strain [argE3 thi-1 rpsL xyl mtl Δ(gal-uvrB) supE44] expressing the AcrAB TolC EP at its basal level and Klebsiella pneumoniae ATCC 49,619 Gram-negative strains were studied in the experiments. Staphylococcus aureus ATCC 43,300 methicillin-resistant (MRSA) strain and Enterococcus faecalis ATCC 29,212 strain were used as Gram-positive strains in the assays. MIC values of the complexes were determined in 96-well plates based on the Clinical and Laboratory Standard Institute guidelines (CLSI guidelines). The stock solutions of the compounds (dissolved in DMSO using 10 mM concentration) were diluted in 100 μL of Mueller Hinton Broth. Then 10^−4 dilution of an overnight bacterial culture in 100 μL of medium was added to each well, with the exception of the medium control wells.

Compound	MIC E. faecalis [µM]
Cc1ccc(C(C)C)cc1.[Cl-].[O-]n1ccccc1=S.[Ru+2] [complex 1]	100
C1N2CN3CN1CP(C2)C3.Cc1ccc(C(C)C)cc1.F[P-](F)(F)(F)(F)F.[O-]n1ccccc1=S.[Ru+2] [complex 2]	>100
Cc1ccc(C(C)C)cc1.[Cl-].[O-]n1ccc2ccccc2c1=S.[Ru+2] [complex 3]	12.5
C1N2CN3CN1CP(C2)C3.Cc1ccc(C(C)C)cc1.F[P-](F)(F)(F)(F)F.[O-]n1ccc2ccccc2c1=S.[Ru+2] [complex 4]	>100
Cc1ccc(C(C)C)cc1.O=C(C=C([O-])C(F)(F)F)c1ccc(Cl)cc1.[Cl-].[Ru+2] [complex 7]	50
C1N2CN3CN1CP(C2)C3.Cc1ccc(C(C)C)cc1.F[P-](F)(F)(F)(F)F.O=C(C=C([O-])C(F)(F)F)c1ccc(Cl)cc1.[Ru+2] [complex 8]	100

Each compound was assayed on Escherichia coli K-12 AG100 (assay: MIC determination (CLSI broth microdilution)). Details: Gram-negative, AG100, 18 h.
Assay type: cell-based
Method: as §5

Compound	MIC E. coli [µM]
Cc1ccc(C(C)C)cc1.[Cl-].[O-]n1ccccc1=S.[Ru+2] [complex 1]	>100
C1N2CN3CN1CP(C2)C3.Cc1ccc(C(C)C)cc1.F[P-](F)(F)(F)(F)F.[O-]n1ccccc1=S.[Ru+2] [complex 2]	>100
Cc1ccc(C(C)C)cc1.[Cl-].[O-]n1ccc2ccccc2c1=S.[Ru+2] [complex 3]	>100
C1N2CN3CN1CP(C2)C3.Cc1ccc(C(C)C)cc1.F[P-](F)(F)(F)(F)F.[O-]n1ccc2ccccc2c1=S.[Ru+2] [complex 4]	>100
Cc1ccc(C(C)C)cc1.O=C(C=C([O-])C(F)(F)F)c1ccc(Cl)cc1.[Cl-].[Ru+2] [complex 7]	>100
C1N2CN3CN1CP(C2)C3.Cc1ccc(C(C)C)cc1.F[P-](F)(F)(F)(F)F.O=C(C=C([O-])C(F)(F)F)c1ccc(Cl)cc1.[Ru+2] [complex 8]	>100

Each compound was assayed on Klebsiella pneumoniae ATCC 49619 (assay: MIC determination (CLSI broth microdilution)). Details: Gram-negative, ATCC 49619, 18 h.
Assay type: cell-based
Method: as §5

Compound	MIC K. pneumoniae [µM]
Cc1ccc(C(C)C)cc1.[Cl-].[O-]n1ccccc1=S.[Ru+2] [complex 1]	>100
C1N2CN3CN1CP(C2)C3.Cc1ccc(C(C)C)cc1.F[P-](F)(F)(F)(F)F.[O-]n1ccccc1=S.[Ru+2] [complex 2]	>100
Cc1ccc(C(C)C)cc1.[Cl-].[O-]n1ccc2ccccc2c1=S.[Ru+2] [complex 3]	>100
C1N2CN3CN1CP(C2)C3.Cc1ccc(C(C)C)cc1.F[P-](F)(F)(F)(F)F.[O-]n1ccc2ccccc2c1=S.[Ru+2] [complex 4]	>100
Cc1ccc(C(C)C)cc1.O=C(C=C([O-])C(F)(F)F)c1ccc(Cl)cc1.[Cl-].[Ru+2] [complex 7]	>100
C1N2CN3CN1CP(C2)C3.Cc1ccc(C(C)C)cc1.F[P-](F)(F)(F)(F)F.O=C(C=C([O-])C(F)(F)F)c1ccc(Cl)cc1.[Ru+2] [complex 8]	>100

Each compound was assayed on Staphylococcus aureus ATCC 43300 methicillin-resistant (MRSA) (assay: MIC determination (CLSI broth microdilution)). Details: Gram-positive, MRSA ATCC 43300, 18 h.
Assay type: cell-based
Method: as §5

Compound	MIC S. aureus [µM]
Cc1ccc(C(C)C)cc1.[Cl-].[O-]n1ccccc1=S.[Ru+2] [complex 1]	50
C1N2CN3CN1CP(C2)C3.Cc1ccc(C(C)C)cc1.F[P-](F)(F)(F)(F)F.[O-]n1ccccc1=S.[Ru+2] [complex 2]	>100
Cc1ccc(C(C)C)cc1.[Cl-].[O-]n1ccc2ccccc2c1=S.[Ru+2] [complex 3]	12.5
C1N2CN3CN1CP(C2)C3.Cc1ccc(C(C)C)cc1.F[P-](F)(F)(F)(F)F.[O-]n1ccc2ccccc2c1=S.[Ru+2] [complex 4]	>100
Cc1ccc(C(C)C)cc1.O=C(C=C([O-])C(F)(F)F)c1ccc(Cl)cc1.[Cl-].[Ru+2] [complex 7]	50
C1N2CN3CN1CP(C2)C3.Cc1ccc(C(C)C)cc1.F[P-](F)(F)(F)(F)F.O=C(C=C([O-])C(F)(F)F)c1ccc(Cl)cc1.[Ru+2] [complex 8]	50

The compounds below were run against T1, Human serum albumin (HSA) (Homo sapiens, UniProt P02768) (assay: HSA binding by spectrofluorometry (Trp-214 quenching, site marker displacement)). Details: batch, 48 h equilibration, pH 7.40 PBS’, 25 °C.
T1 construct: purchased Sigma-Aldrich A8763
T1 sequence (P02768 25-609): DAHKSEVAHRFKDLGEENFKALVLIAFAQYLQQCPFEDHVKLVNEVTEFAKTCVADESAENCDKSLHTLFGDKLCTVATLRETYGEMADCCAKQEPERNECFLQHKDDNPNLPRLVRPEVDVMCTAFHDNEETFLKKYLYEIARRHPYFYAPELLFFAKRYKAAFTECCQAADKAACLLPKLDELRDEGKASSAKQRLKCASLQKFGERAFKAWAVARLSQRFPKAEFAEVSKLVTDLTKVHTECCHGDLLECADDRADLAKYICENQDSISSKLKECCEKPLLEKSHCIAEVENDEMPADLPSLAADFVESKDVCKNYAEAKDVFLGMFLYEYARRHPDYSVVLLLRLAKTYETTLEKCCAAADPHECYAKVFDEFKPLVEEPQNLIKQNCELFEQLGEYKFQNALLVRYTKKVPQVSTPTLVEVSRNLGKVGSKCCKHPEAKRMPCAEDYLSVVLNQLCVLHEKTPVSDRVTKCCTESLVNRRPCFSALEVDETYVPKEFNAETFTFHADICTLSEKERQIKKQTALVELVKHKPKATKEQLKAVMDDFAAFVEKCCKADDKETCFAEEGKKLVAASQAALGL
Method: Steady-state spectrofluorometric measurements were also performed to assay the binding interactions at the binding pockets of HSA located in the IIA and IIIA subdomains. His residues are found nearby at both binding sites, and covalent binding is possible here. Trp-214 quenching and site marker displacement experiments were conducted as reported in our former works. Warfarin (WF) was applied as site I marker and dansyl glycine (DG) was used for site II. Representative emission spectra for Trp-214 quenching in case of 1 are shown in Figure 8a, and changes in the intensities at the emission maximum are compared for 1–4 in Figure 8b. Based on the spectral changes conditional binding constants were computed for both of the quenching and site marker displacement assays (Table 5).
Complex 2 is hardly bound at site I, while binding of 3 and 1 is considered as a strong interaction here.
Fluorescence studies were performed using a Fluoromax (Horiba Jobin Yvon, Kyoto, Japan) fluorometer in 1 × 1 cm quartz cells. All samples contained 1 μM HSA and various HSA-to-metal complex ratios (up to complex:HSA = 1:40) were used. Site marker displacement experiments were also carried out, and in the samples the HSA-to-site marker (WF or DG) ratio was 1:1 and the concentration of the complex compounds was varied. For the Trp quenching, the WF and DG displacement experiments λEX = 295, 310 and 335 nm was applied and emission spectra were recorded spectra in the wavelength range 310–450, 320–500 and 420–600 nm, respectively. Computer program HypSpec was utilized for calculation of binding constants (K’) for HSA–metal complex adducts similar to the approach described in our former works. Calculations were always based on data obtained from at least two independent measurements.

Compound	logKQ’ (Trp-214 quenching)
C1N2CN3CN1CP(C2)C3.Cc1ccc(C(C)C)cc1.F[P-](F)(F)(F)(F)F.[O-]n1ccc2ccccc2c1=S.[Ru+2] [complex 4]	5.39 ± 0.03

Same assay, conditions: site I marker, pH 7.40 PBS’, 25 °C

Compound	logKWF’ (warfarin displacement)
Cc1ccc(C(C)C)cc1.[Cl-].[O-]n1ccccc1=S.[Ru+2] [complex 1]	6.16 ± 0.03
Cc1ccc(C(C)C)cc1.[Cl-].[O-]n1ccc2ccccc2c1=S.[Ru+2] [complex 3]	5.98 ± 0.03

Same assay, conditions: site II marker, pH 7.40 PBS’, 25 °C

Compound	logKDG’ (dansyl glycine displacement)
Cc1ccc(C(C)C)cc1.[Cl-].[O-]n1ccccc1=S.[Ru+2] [complex 1]	5.80 ± 0.03
Cc1ccc(C(C)C)cc1.[Cl-].[O-]n1ccc2ccccc2c1=S.[Ru+2] [complex 3]	5.61 ± 0.03

Same assay, conditions: titration, pH 7.40 PBS’, 25 °C, site I

Compound	logKQ’ (Trp-214 quenching)
Cc1ccc(C(C)C)cc1.[Cl-].[O-]n1ccccc1=S.[Ru+2] [complex 1]	5.81 ± 0.03
C1N2CN3CN1CP(C2)C3.Cc1ccc(C(C)C)cc1.F[P-](F)(F)(F)(F)F.[O-]n1ccccc1=S.[Ru+2] [complex 2]	<4
Cc1ccc(C(C)C)cc1.[Cl-].[O-]n1ccc2ccccc2c1=S.[Ru+2] [complex 3]	6.18 ± 0.03
C1N2CN3CN1CP(C2)C3.Cc1ccc(C(C)C)cc1.F[P-](F)(F)(F)(F)F.[O-]n1ccc2ccccc2c1=S.[Ru+2] [complex 4]	4.46 ± 0.03
